Reference: publication PMC4011867 (PLoS ONE, 2014)
Read-outs that look alike come from different tables or passages of the source.

Key:
Parameters in all cases: species or system Acyrthosiphon pisum
[1] = target: T1, A. pisum native nAChRs, [125I]-alpha-bungarotoxin binding sites (alpha-Bgt-sensitive); settings: PBS pH 7.2, 0.1% BSA, room temperature, 4 h, low-affinity site, Cheng-Prusoff, table header prints nM, text and IC50 support µM
T1 construct: gene Apisumα1

[2] = target: T2, A. pisum native nAChRs, [3H]-imidacloprid binding sites (alpha-Bgt-insensitive); test: [3H]-IMI competition binding, filtration; settings: 25 nM [3H]-IMI, 10 mM Tris-HCl pH 7.4, room temperature, 4 h, low-affinity site; for Ki: Cheng-Prusoff, read-out: [^3H]-IMI / % of high affinity / Ki; for IC50: read-out: [^3H]-IMI / Bmax (fmol/mg) / IC50
T2 construct: gene Apisumα1
Text: [3H]-IMI competition binding, filtration on A. pisum native nAChRs, [3H]-imidacloprid binding sites (alpha-Bgt-insensitive)

[3] = target: T2, A. pisum native nAChRs, [3H]-imidacloprid binding sites (alpha-Bgt-insensitive); test: [3H]-IMI saturation binding, filtration; settings: 10 mM Tris-HCl pH 7.4, room temperature, 4 h; high-affinity site of two-site fit; labelled compound; read-out: [^3H]-IMI / Kd (nM) / assay level
Text: [3H]-IMI saturation binding, filtration on A. pisum native nAChRs, [3H]-imidacloprid binding sites (alpha-Bgt-insensitive)

[4] = apparent Ki, possibly not strictly competitive
[5] = possibly not strictly competitive

SMILES: CN/C(=N\[N+](=O)[O-])NCc1cnc(Cl)s1 [clothianidin]
- Ki ([1]; 0.08 nM [125I]-alpha-Bgt): 180 ± 50 nM
- Ki [2, 4]: 127 ± 42.5 nM
- IC50 [2, 5]: 203 ± 68 nM

SMILES: O=[N+]([O-])N=C1NCCN1Cc1ccc(Cl)nc1 [imidacloprid]
- Kd [3]: 0.16 ± 0.04 nM
- Ki ([1]; 0.6 nM [125I]-alpha-Bgt): 14600 ± 1130 nM
- Ki [2]: 38.1 ± 6.88 nM
- IC50 [2]: 61 ± 11 nM

SMILES: CN1COCN(Cc2cnc(Cl)s2)C1=N[N+](=O)[O-] [thiamethoxam]
- Ki ([1]; 0.08 nM [125I]-alpha-Bgt): 1530 ± 650 nM
- Ki [2, 4]: 1050 ± 63.1 nM
- IC50 [2, 5]: 1680 ± 101 nM
